Square brackets hold non-standard residues; d marks the D form. Peptide text beside a SMILES is read from it. dCha = N[C@H](CC1CCCCC1)C(=O)O; dNle = CCCC[C@@H](N)C(=O)O
These compounds were tested against T1, κ receptor (Cavia porcellus, UniProt P41144) (assay: Radioreceptor assay selective for the kappa receptor (inhibition of [3H]-U69,593 binding)).
T1 construct: tissue homogenates prepared from guinea pig brains (cortex and cerebellum); tissue Harlan Bioproducts for Science (Indianapolis, Ind.); host or cells: guinea pig brain, cortex and cerebellum, crude membrane homogenate
T1 sequence (P41144 whole entry): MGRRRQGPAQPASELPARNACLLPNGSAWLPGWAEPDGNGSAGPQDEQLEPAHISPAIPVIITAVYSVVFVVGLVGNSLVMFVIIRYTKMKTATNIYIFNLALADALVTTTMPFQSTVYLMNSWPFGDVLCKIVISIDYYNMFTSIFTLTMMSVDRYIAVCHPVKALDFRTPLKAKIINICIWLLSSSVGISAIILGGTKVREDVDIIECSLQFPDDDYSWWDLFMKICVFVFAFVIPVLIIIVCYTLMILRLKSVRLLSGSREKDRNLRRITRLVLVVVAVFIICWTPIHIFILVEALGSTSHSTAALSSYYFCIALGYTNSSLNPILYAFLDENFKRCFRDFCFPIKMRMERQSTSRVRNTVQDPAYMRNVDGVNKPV
Design: species or system guinea pig
Protocol: Guinea pig brains, frozen in liquid nitrogen, were obtained from Harlan Bioproducts for Science (Indianapolis, Ind.). Frozen brains were thawed, the cerebella and cortex were removed and weighed. The combined cortex and cerebella were homogenized in 40 ml Tris-HCl buffer (50 mM, pH 7.4, 4° C.) containing 100 μM phenylmethylsulfonyl fluoride (PMSF) 5 mM MgCl2 and 1 mg/ml bovine serum albumin (BSA) and centrifuged (39000×g) (Model J2-HC; Beckman Instruments, Fullerton, Calif.) for 10 min at 4° C. The pellets were resuspended in fresh Tris-HCl buffer and incubated at 37° C. for 40 min. Following incubation, the suspensions were centrifuged as above, the resulting pellets resuspended in 100 volumes of Tris buffer and the suspensions combined. Membrane suspensions were prepared and used in the same day. Protein content of the crude homogenates ranged from 0.1-0.3 mg/ml as determined using the method described by Bradford in Anal. Biochem. 72:248-254 (1976), which is incorporated herein by reference.
Binding assays were carried out in polypropylene tubes. […] Assay tubes were incubated for 2.5 hr at 25° C. The reaction was terminated by filtration through GF-B filters (Wallac, Gaithesburg, Md.). The filters were subsequently washed with 6 ml Tris-HCl buffer at 4° C. Bound radioactivity was counted on a Beta-plate Liquid Scintillation Counter (Life Technologies, Gaithersburg, Md.) and expressed in counts per minute (cpm). Standard curves were prepared using 0.05-6300 nM naloxone (Sigma, St. Louis, Mo.). Competitive inhibition assays were performed as above using serial dilutions of the peptide mixtures. IC50 values were then calculated using the software […] (ISI, San Diego, Calif.).
In the case of `N[C@H](Cc1ccccc1)C(=O)N[C@H](Cc1ccccc1)C(=O)N[C@@H](Cc1c[nH]c2ccccc12)C(=O)N[C@H](CC1CCCCC1)C(=O)O` [SEQ ID NO. 15, (D)Phe-(D)Phe-Trp-(D)ChAla] (H-[dF][dF]W[dCha]-OH), the IC50 is reported as 52400 nM. Ac-RRFRYRYRRR-NH2 [SEQ ID NO. 5] gave an IC50 of 142 nM. In the case of `CCCC[C@@H](N)C(=O)N[C@H](Cc1ccccc1)C(=O)N[C@@H](Cc1c[nH]c2ccccc12)C(=O)N[C@H](CCCNC(=N)N)C(=O)O` [SEQ ID NO. 24, (D)Nle-(D)Phe-Trp(D)Arg] (H-[dNle][dF]W[dR]-OH), the IC50 is reported as 11000 nM. For Ac-YRTRYRYRRR-NH2 [SEQ ID NO. 1], the IC50 was 10 nM. Ac-YRFRYRYRRR-NH2 [SEQ ID NO. 2] was tested, and the IC50 was 18 nM. For Ac-RFFRYRYRRR-NH2 [SEQ ID NO. 3], the IC50 was 22 nM. Compound `CCCC[C@@H](N)C(=O)N[C@H](Cc1ccccc1)C(=O)N[C@H](CCCC)C(=O)N[C@H](CCCNC(=N)N)C(=O)O` [SEQ ID NO. 23, (D)Nle-(D)Phe-(D)Nle-(D)Arg] (H-[dNle][dF][dNle][dR]-OH) has an IC50 of 10 nM. Compound `CCCC[C@@H](N)C(=O)N[C@H](Cc1ccccc1)C(=O)N[C@@H](C(=O)N[C@H](CC1CCCCC1)C(=O)O)[C@H](C)CC` [SEQ ID NO. 27, (D)Nle-(D)Phe-(D)Ile-(D)ChAla] (H-[dNle][dF][dI][dCha]-OH) has an IC50 of 1450 nM. With `CCCC[C@@H](N)C(=O)N[C@H](Cc1ccccc1)C(=O)N[C@@H](Cc1c[nH]c2ccccc12)C(=O)N[C@H](CC1CCCCC1)C(=O)O` [SEQ ID NO. 25, (D)Nle-(D)Phe-Trp-(D)ChAla] (H-[dNle][dF]W[dCha]-OH) the IC50 was 42800 nM. In the case of `CCCC[C@@H](N)C(=O)N[C@H](Cc1ccccc1)C(=O)N[C@@H](C(=O)N[C@H](CCCNC(=N)N)C(=O)O)[C@H](C)CC` [SEQ ID NO. 26, (D)Nle-(D)Phe-(D)Ile-(D)Arg] (H-[dNle][dF][dI][dR]-OH), the IC50 is reported as 16 nM. Ac-YRMRYRYRRR-NH2 [SEQ ID NO. 4] showed an IC50 of 36 nM. With `CC[C@@H](C)[C@@H](NC(=O)[C@@H](Cc1ccccc1)NC(=O)[C@H](N)Cc1ccccc1)C(=O)N[C@H](CC1CCCCC1)C(=O)O` [SEQ ID NO. 17, (D)Phe-(D)Phe-(D)Ile-(D)ChAla] (H-[dF][dF][dI][dCha]-OH) the IC50 was 169 nM. `CCCC[C@@H](NC(=O)[C@@H](Cc1ccccc1)NC(=O)[C@H](N)Cc1ccccc1)C(=O)N[C@H](CC1CCCCC1)C(=O)O` [SEQ ID NO. 13, (D)Phe-(D)Phe-(D)Nle-(D)ChAla] (H-[dF][dF][dNle][dCha]-OH) was tested, and the IC50 was 3 nM. Work on `N=C(N)NCCC[C@@H](NC(=O)[C@H](Cc1c[nH]c2ccccc12)NC(=O)[C@@H](Cc1ccccc1)NC(=O)[C@H](N)Cc1ccccc1)C(=O)O` [SEQ ID NO. 14, (D)Phe-(D)Phe-Trp-(D)Arg] (H-[dF][dF]W[dR]-OH) yielded an IC50 of 4950 nM. Compound `CC[C@@H](C)[C@@H](NC(=O)[C@@H](Cc1ccccc1)NC(=O)[C@H](N)Cc1ccccc1)C(=O)N[C@H](CCCNC(=N)N)C(=O)O` [SEQ ID NO. 16, (D)Phe-(D)Phe-(D)Ile-(D)Arg] has an IC50 of 2 nM.
